Assay [1] concerns human colon carcinoma HT-29 cells. The assay is described as follows: XTT cell proliferation assay, HT-29. The note with it: for IC50: as Example 13, Table 7. It is filed as cell-based. The method in brief: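 HT-29 cells in McCoy's 5A with 10% FBS, 37° C., 5% CO2, exposed to varying compound concentrations for 6-7 days. Viable cells quantified by XTT reduction to formazan; growth inhibition expressed as IC50 (μM).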
On the technique in general: Tetrazolium assays rely on reduction of a dye to a coloured formazan, in cell work by metabolically active cells.

For assay [2], the system named is HCT-116 colon cancer cells. The assay is described as follows: XTT cell proliferation assay, HCT-116. It counts as cell-based, human. The settings on record: read-out: IC50 (cell growth inhibition). The procedure:
(§1) Cell growth inhibition IC50 (μM) by compounds of Formula I was tested on various cancer cell types by XTT cell proliferation assay. The growth inhibitory effects of the compounds of Formula I as shown below for the melanoma cell line SK-MEL-2 were reproducible by Lorus Therapeutics Inc.

Assay [3] deals with PC-3 prostate cancer cells. The assay can be described thus: XTT cell proliferation assay, PC-3. It is filed as cell-based, human. The note with it: read-out: IC50 (cell growth inhibition). The procedure:
as §1

Assay [4] concerns MDA-MB-435 breast cancer cells. The assay can be described thus: XTT cell proliferation assay, MDA-MB-435. The settings on record: read-out: IC50 (cell growth inhibition). It is filed as cell-based, human. The protocol:
as §1

In another assay the test system is CCRF-CEM leukemia cells. The assay can be described thus: XTT cell proliferation assay, CCRF-CEM. It is filed as cell-based, human. The settings on record: read-out: IC50 (cell growth inhibition). The protocol:
as §1

The next assay concerns MOLT-4 leukemia cells. The assay is described as follows: XTT cell proliferation assay, MOLT-4. It counts as cell-based, human. The settings on record: read-out: IC50 (cell growth inhibition). The protocol: as §1
The test system of a further assay is SK-MEL-2 melanoma cells. The assay can be described thus: XTT cell proliferation assay, SK-MEL-2. It is filed as cell-based, human. The note with it: read-out: IC50 (cell growth inhibition). The procedure:
as §1

The subject of assay [5] is KLF4. The assay can be described thus: KLF4 gene expression by RT-PCR, HCT-116. It is filed as cell-based, human. The settings on record: HCT-116, relative to vehicle control as 1. The source says:
(§2) Gene expression levels of KLF4, induced by compounds of Formula I, were also examined on various cancer cell types by RT-PCR. Fold changes in KLF4 in compound-treated cells were expressed relative to KLF4 expression in vehicle control-treated cells of respective cell type as “1”. […] Additionally, xenografts of MDA-MB-435 implanted into mammary fat pads of female SCID mice have shown immunohistochemical staining consistent with melanocytic origin (Ellison G, Klinowska T, Westwood R F, Docter E, French T, Fox J C. (2002) Mol Pathol. 55(5): 294-299). The breast cancer cell line MDA-MB-435 may be expected to function differently than the other breast cancer cell lines.

Assay [6] deals with KLF4. The assay is described as follows: KLF4 gene expression by RT-PCR, H-460. It is filed as cell-based, human. The note with it: for KLF2, KLF4 and KLF6 gene expression: H-460, 2.5 μM; for KLF4 (gene fold increase): H-460, relative to vehicle control as 1.
Excerpt: as §2
Expressions of KLF2, 4 and 6 genes in H-460 cells, treated with vehicle control or 2.5 μM compound 3 or compound 7, were measured by RT-PCR. Gene expression was presented relative to respective gene expression in vehicle control-treated group as “1”.

The subject of assay [7] is KLF4. The assay is described as follows: KLF4 gene expression by RT-PCR, DU-145. The settings on record: DU-145, relative to vehicle control as 1. It counts as cell-based, human.
Excerpt: as §2

Assay [8] deals with KLF4. The assay is described as follows: KLF4 gene expression by RT-PCR, PC-3. It counts as cell-based, human. The settings on record: PC-3, relative to vehicle control as 1.
Excerpt: as §2

Assay [9] concerns KLF4. The assay can be described thus: KLF4 gene expression by RT-PCR, MDA-MB-231. It is filed as cell-based, human. The settings on record: MDA-MB-231, relative to vehicle control as 1.
Excerpt: as §2

For assay [10], the system named is KLF4. The assay is described as follows: KLF4 gene expression by RT-PCR, MDA-MB-435. The note with it: MDA-MB-435, relative to vehicle control as 1. It is filed as cell-based, human.
Excerpt: as §2

Setting [11] is: Homo sapiens, HT-29, XTT, 6-7 days, Table 3, read-out: IC50.
[12] abbreviates: Homo sapiens, HT-29, XTT, read-out: IC50.
The mark [13] stands for this setting: Homo sapiens, HT-29 colon, Table 8, read-out: IC50 (cell growth inhibition).

pIC50: −log10 of the molar value. Like-named read-outs stand apart in the source and are kept apart here.

In the case of `Cc1[nH]c2ccccc2c1-c1nc2c3cccnc3c3ncccc3c2[nH]1` [Compound 3], the negative logarithm of the IC50 (pIC50) (in general, −log10 of the IC50, conventionally taken in molar units) in [1] (setting [11]) is 6.22; in assay [1] (setting [13]) it was 6.15; in assay [2] (Homo sapiens) it was 6.70; in assay [3] (Homo sapiens), 6.52; in assay [4] (Homo sapiens), 6.46; in the assay on CCRF-CEM leukemia cells (Homo sapiens), 6.38. The pIC50 in the assay with MOLT-4 leukemia cells (Homo sapiens) was 6.82; in the assay on SK-MEL-2 melanoma cells (Homo sapiens), 6.60. The IC50 (in general, the concentration that gives 50% inhibition) in assay [1] (setting [12]) turned out to be 0.6 µg/mL. The “KLF4 (gene fold increase)” value came to 5.88 fold with KLF4 [5]; 3.4 fold in the assay on KLF4 [6]; 9.16 fold in the assay with KLF4 [7]; 16.28 fold in the assay on KLF4 [8]; 1.52 fold with KLF4 [9]; 9.09 fold in the assay with KLF4 [10]. The “KLF2, KLF4 and KLF6 gene expression” value with KLF4 [6] is recorded as “increased KLF4 as most significantly changed gene”.

As to `Cc1[nH]c2ccc(F)cc2c1-c1nc2c3cccnc3c3ncccc3c2[nH]1` [Compound 7], the pIC50 in [1] (setting [11]) is 6.15; in assay [1] (setting [13]), 6.10; in [2] (Homo sapiens) it was 6.82; in assay [3] (Homo sapiens) it was 6.68; in assay [4] (Homo sapiens) it was 6.70; in the assay on CCRF-CEM leukemia cells (Homo sapiens), 6.40. Moreover, the pIC50 with MOLT-4 leukemia cells (Homo sapiens) was 7.15; in the assay on SK-MEL-2 melanoma cells (Homo sapiens), 6.70. Further, in assay [1] (setting [12]), the half-inhibitory concentration (IC50) worked out at 0.7 µg/mL. The “KLF4 (gene fold increase)” value with KLF4 [5] is given as 6.15 fold; in the assay on KLF4 [6], 2.1 fold; in the assay on KLF4 [7] it was 11.24 fold; in the assay with KLF4 [8], 12.17 fold; in the assay with KLF4 [9], 1.6 fold; with KLF4 [10], 11.71 fold. Besides, in the assay with KLF4 [6], the “KLF2, KLF4 and KLF6 gene expression” value is given as “increased KLF4 as most significantly changed gene”.

Compound `CCc1cccc2c(-c3nc4c5cccnc5c5ncccc5c4[nH]3)c(C(C)(C)C)[nH]c12` [Compound 64] yielded a half-inhibitory concentration (IC50) in assay [1] (HT-29, XTT) of 0.15 µg/mL. The pIC50 is 6.82 in [1] (HT-29 colon, Table 8, read-out: IC50 (cell growth inhibition)); 6.70 in assay [2]; 6.34 in assay [3]; 6.30 in assay [4]; 6.60 with CCRF-CEM leukemia cells; 6.76 with MOLT-4 leukemia cells. In addition, the pIC50 in the assay on SK-MEL-2 melanoma cells was 6.70. For the same compound, the “KLF4 (gene fold increase)” value with KLF4 [5] was 3.05 fold; with KLF4 [6], 1.64 fold; with KLF4 [7], 6.75 fold; in the assay on KLF4 [8], 1.36 fold; in the assay with KLF4 [9], 2.06 fold; in the assay on KLF4 [10], 7.59 fold.

For the origin of these results see patent US8148392B2, “2-indolyl imidazo [4,5-d] phenanthroline derivatives and their use in the treatment of cancer” (Lorus Therapeutics Inc., priority 2005, dated 2012).
